Source: US20190375764A1, “SALTS OF A HETEROCYCLIC COMPOUND AND CRYSTALLINE FORMS, PROCESSES FOR PREPARING, THERAPEUTIC USES, AND PHARMACEUTICAL COMPOSITIONS THEREOF” (Sunovion Pharmaceuticals Inc., priority 2018, published 2019)
Entries after “also recorded” stand apart in the source; their conditions may differ.

Key:
Format in all cases: physicochemical
[1] = Temperature controlled XRPD (crystal form on heating); details: heating up to melting
Protocol: Temperature controlled XRPD was measured by the X'pert-MPD with an Anton Paar TCU 100 Temperature Control Unit. Sample was measured from 30° C. to 250° C. or 270° C. with 10° C. increments. Measurement conditions were as follows: range: 4-30°, step: 0.017°, time per step: 100 s.
FT-Raman, XRPD, DSC, TGA, and DVS instruments and techniques are similar to those in Example 3. Temperature controlled XRPD was measured by X'pert-Pro MPD (Spectris) with TCU 100 Temperature Control Unit (Anton Paar). The temperature of the sampling stage was increased step by step as programmed and XRPD patterns of sample were measured at each step. The measurement condition is shown below: • Range angle: From 4 to 30° • Step size: 0.017° • Time per step: 100 s

[2] = Crystal form stability on humidity, storage and drying (XRPD / FT-Raman); details: for crystal form before and after DVS measurement (XRPD): moisture sorption/desorption
Protocol: DVS moisture sorption isotherms were generated using a Hiden Analytical IGA-sorp moisture sorption analyzer. Samples were run as received without pre-analysis drying. Each sample was equilibrated between about 30 and 120 minutes at each relative humidity (RH) step. Temperature was fixed at about 25° C. and the relative humidity steps (0 to 95% RH) were in 5-10% increments. Sample sizes ranged from 3 to 30 mg. After DVS measurement, XRPD was measured in order to check the solid form. FT-Raman analyses were performed by using MultiRAM (Bruker Optics). Each suspension or dry powder sample was measured from out of glass vial. The measurement condition is shown below: • Excitation wavelength: 1064 nm • Laser power: 500 mW • Wavenumber: 4 cm^−1 • Sample scan: 128 times X-ray Powder Diffraction (XRPD) spectra were obtained by X'pert Pro MPD (Spectris). X-rays was generated with Cu Kα radiation. The powder samples were put on the reflection free sample plate. The XRPD patterns were analyzed by HighScorePlus. The measurement condition is shown below: • Range angle: From 4 to 30°, to 40° and to 65° (2θ) • Step size: 0.017° • Time per step: 100 s Dynamic Vapor sorption (DVS) moisture sorption isotherms were generated using IGA-sorp moisture sorption analyzer (Hiden Analytical). Sample measurements were run without drying before analyses. XRPD was measured in order to check any changes of the solid form after the moisture sorption/desorption. The measurement condition is shown below: • Time at each RH steps: From 30 to 120 minutes • Relative humidity steps: 5 or 10% steps • Temperature: 25° C.

[3] = Dynamic vapor sorption (DVS) moisture sorption isotherm; details: for hygroscopicity: result of DVS, in words
Protocol: DVS moisture sorption isotherms were generated using a Hiden Analytical IGA-sorp moisture sorption analyzer. Samples were run as received without pre-analysis drying. Each sample was equilibrated between about 30 and 120 minutes at each relative humidity (RH) step. Temperature was fixed at about 25° C. and the relative humidity steps (0 to 95% RH) were in 5-10% increments. Sample sizes ranged from 3 to 30 mg. After DVS measurement, XRPD was measured in order to check the solid form. Dynamic Vapor sorption (DVS) moisture sorption isotherms were generated using IGA-sorp moisture sorption analyzer (Hiden Analytical). Sample measurements were run without drying before analyses. XRPD was measured in order to check any changes of the solid form after the moisture sorption/desorption. The measurement condition is shown below: • Time at each RH steps: From 30 to 120 minutes • Relative humidity steps: 5 or 10% steps • Temperature: 25° C.

[4] = humidity increased from 0% RH to 95% RH

## CNC[C@H]1OCCn2nc3ccccc3c21.Cc1ccc(S(=O)(=O)O)cc1 [Form TA, (R)-1-(3,4-dihydro-1H-[1,4]oxazino[4,3-b]indazol-1-yl)-N-methylmethanamine tosylate]
[1]; tosylate
  transformation of crystal form, temperature controlled XRPD: not transformed to any other polymorph; also recorded: stable in terms of the crystal form and not transformed to another form until the melting point
[2]
  crystal form before and after DVS measurement (XRPD): no changes of the crystal form
[3]; at 95% RH
  weight gain (DVS): about 1%
[3]; [4]
  weight gain (DVS): ~1%
[3]; listed as Tosylate, tosylate
  hygroscopicity: less hygroscopicity
[3]; listed as tosylate, tosylate
  hygroscopicity: less hygroscopicity
[3]; tosylate
  hygroscopicity: less hygroscopicity; also recorded: good hygroscopicity behavior; also recorded: non-hygroscopicity

## CNC[C@H]1OCCn2nc3ccccc3c21.O=C(O)/C=C/C(=O)O [Form FA, (R)-1-(3,4-dihydro-1H-[1,4]oxazino[4,3-b]indazol-1-yl)-N-methylmethanamine fumarate]
[1]
  transformation of crystal form, temperature controlled XRPD: not transformed to any other polymorph

## CNC[C@H]1OCCn2nc3ccccc3c21.O=C(O)/C=C/C(=O)O [Form FB, (R)-1-(3,4-dihydro-1H-[1,4]oxazino[4,3-b]indazol-1-yl)-N-methylmethanamine fumarate]
[2]; 75% RH overnight (NaCl water suspension)
  crystal form after storage under humidity: Form FA was observed
[2]; dry condition or heated, quickly transformed back to hydrous form in the air
  crystal form under dry condition or heated: anhydrous form can be obtained
[3]; at over 75% RH
  weight gain (DVS): about 5%

## CNC[C@H]1OCCn2nc3ccccc3c21.O=S(=O)(O)c1ccccc1 [Form BA, (R)-1-(3,4-dihydro-1H-[1,4]oxazino[4,3-b]indazol-1-yl)-N-methylmethanamine benzenesulfonate]
[1]
  transformation of crystal form, temperature controlled XRPD: not transformed to any other polymorph
[3]; at 90% RH, another batch of Form BA
  weight gain (DVS): about 1%
[3]; at 90% RH, one batch of Form BA
  weight gain (DVS): about 2%
[3]; at 95% RH
  weight gain (DVS): about 2%
[3]; at 95% RH, another batch of Form BA
  weight gain (DVS): about 2%
[3]; at 95% RH, one batch of Form BA
  weight gain (DVS): about 8%
[3]; benzenesulfonate
  hygroscopicity: less hygroscopicity; also recorded: good hygroscopicity behavior
[3]; listed as besylate, benzenesulfonate
  hygroscopicity: less hygroscopicity

## CNC[C@H]1OCCn2nc3ccccc3c21.Cl [Form HD, (R)-1-(3,4-dihydro-1H-[1,4]oxazino[4,3-b]indazol-1-yl)-N-methylmethanamine hydrochloride]
[2]; at room temperature
  crystal form transformation: Transformed to Form C

## CNC[C@H]1OCCn2nc3ccccc3c21.Cl [Form HB, (R)-1-(3,4-dihydro-1H-[1,4]oxazino[4,3-b]indazol-1-yl)-N-methylmethanamine hydrochloride]
[2]; observed only in a suspension state, filtrated and dried, hydrochloride
  crystal form stability on isolation: transformed to Form HC or Form HA; also recorded: Not stable

## CNC[C@H]1OCCn2nc3ccccc3c21.Cl [Form HC, (R)-1-(3,4-dihydro-1H-[1,4]oxazino[4,3-b]indazol-1-yl)-N-methylmethanamine hydrochloride]
[2]; 75% RH for 1 day, saturated sodium chloride water
  crystal form after storage at high-humid condition (Raman): transformed to Form HD
[2]; humidity level of more than 70% RH
  crystal form transformation: Transformed to Form D
[2]; hydrochloride
  crystal form before and after DVS measurement (XRPD): basically stable
[3]; between 60% RH and 70% RH (Form HC transformed to Form HD)
  weight gain (DVS): 6.5%
[3]; [4]
  weight gain (DVS): 9.3%
[3]; hydrochloride
  hygroscopicity: hygroscopic

## CNC[C@H]1OCCn2nc3ccccc3c21.Cl [Form HA, (R)-1-(3,4-dihydro-1H-[1,4]oxazino[4,3-b]indazol-1-yl)-N-methylmethanamine hydrochloride]
[2]; hydrochloride
  crystal form before and after DVS measurement (XRPD): transformed to Form HC mixed with an unidentified polymorph
[3]; at 95% RH
  weight gain (DVS): over 100%
[3]; hydrochloride
  hygroscopicity: Highly hygroscopic

## CNC[C@H]1OCCn2nc3ccccc3c21.O=C(O)/C=C/C(=O)O [fumarate, (R)-1-(3,4-dihydro-1H-[1,4]oxazino[4,3-b]indazol-1-yl)-N-methylmethanamine fumarate]
[3]
  hygroscopicity: no hygroscopicity
